Results taken from patent EP1283044A2, “Injectable ready-to-use solutions containing an antitumor anthracycline glycoside” (Pharmacia Italia S.p.A., priority 1986, dated 1988).
Where a name gives a salt, the structure may show the parent alone.

Tests used:
[1] = pH-stability profile at 55°C of epirubicin.HCl 2 mg/ml solutions in Water for Injection, 0.9% saline or 5% dextrose: HPLC assay, pH, Kobs; format: physicochemical
Description: Each solution was filtered through a 0.22 µm microporous membrane under nitrogen pressure. 5.0 ml of each solution were stored at 55°C in glass vials of glass type I, 8ml top capacity vial, Teflon (Trade Mark)-faced chlorobutyl rubber bung, aluminium seal.
The doxorubicin.HCl assays are the mean of three independent determinations performed by the US Pharmacopoeia (USP high performance liquid chromatography (HPLC) method (USP XXI)).
Solutions of epirubicin were prepared in the same fashion as the corresponding doxorubicin solutions hereinbefore. They were then tested for stability in the same way. The results are presented in Tables 32 to 61 below and illustrated in Figures 4 to 6.

[2] = Long term stability of doxorubicin.HCl 2 mg/ml solution in 0.9% sodium chloride at pH 3.7; details: batch TF/23256, 0.9% sodium chloride
[3] = Shelf-life (t90%) forecast, Arrhenius approach, doxorubicin.HCl 2 mg/ml sterile water solution pH 3.0; format: physicochemical; details: for K x 10^3: 2 mg/ml sterile water solution pH 3.0, calculated from Arrhenius equation; for t90%: 2 mg/ml sterile water solution pH 3.0, calculated shelf-life; for Kobs x 10^3: 2 mg/ml sterile water solution pH 3.0, observed
Description: (§1) The solution was filtered through a 0.22 µm microporous membrane under nitrogen pressure. 5.0 ml aliquots were stored at: • (a) 55°C for 21 days, • (b) 45°C and 35°C for 28 days, and • (c) 27°C for 90 days. in glass vials of glass type I, 8ml top capacity vial, Teflon-faced chlorobutyl rubber bung, aluminium seal. At predetermined times the vials were analysed for doxorubicin.HCl assay and pH.
(§2) The Arrhenius equation for the degradation process was calculated from the Kobs obtained from the different temperatures taken in account for the testing (Table 8). Applying the equation, the rate constants for the pseudo-first order reactions at 4°C, 8°C, 15°C and 27°C were calculated, together with the expected shelf-life (t90%)at these temperatures.

[4] = Shelf-life (t90%) forecast, Arrhenius approach, doxorubicin.HCl 2 mg/ml pH 3.0 in 5% dextrose; format: physicochemical; details: 2 mg/ml pH 3.0 solution in 5% dextrose; for t90%: calculated shelf-life; for Kobs x 10^3: observed
Description: The solution was filtered through a 0.22 µm microporous membrane under nitrogen pressure. 5.0 ml aliquots were stored at: • (a) 60°C for 8 days, • (b) 55°C for 28 days, • (c) 45°C for 28 days, and • (d) 35°C for 28 days in glass vials of glass type I, 8ml top capacity vial, Teflon-faced chlorobutyl rubber bung, aluminium seal.
as §2, with “30).” for “8).”, “(t90%) at” for “(t90%)at”

[5] = Shelf-life (t90%) forecast, Arrhenius approach, doxorubicin.HCl 2 mg/ml pH 3.0 in 0.9% sodium chloride; format: physicochemical; details: 2 mg/ml pH 3.0 solution in 0.9% NaCl; for K x 10^3: calculated from Arrhenius equation; for t90%: calculated shelf-life; for Kobs x 10^3: observed
Description: as §1, with “(a) 60°C for 4 days, • (b)” for “(a)”, “55°C for 11 days, • (c) 45°C” for “55°C”, “days, and” for “days,”, “(d)” for “(b) 45°C and”, “days” for “days, and • (c) 27°C for 90 days.”
as §2, with “28).” for “8).”, “(t90%) at” for “(t90%)at”

COc1cccc2c1C(=O)c1c(O)c3c(c(O)c1C2=O)C[C@@](O)(C(=O)CO)C[C@@H]3O[C@H]1C[C@H](N)[C@@H](O)[C@H](C)O1 [epirubicin.HCl, 4'-epi-doxorubicin]
Kobs x 10^3 ([1]; 2 mg/ml in 0.9% Sodium Chloride Injection, Acetate (I = 0.05) pH 4.0, 55°C): 124.8 1/days
Kobs x 10^3 ([1]; 2 mg/ml in 0.9% Sodium Chloride Injection, Acetate (I= 0.05) pH 5.0, 55°C): 318.1 1/days
Kobs x 10^3 ([1]; 2 mg/ml in 0.9% Sodium Chloride Injection, Formate (I = 0.05) pH 3.5, 55°C): 124.5 1/days
Kobs x 10^3 ([1]; 2 mg/ml in 0.9% Sodium Chloride Injection, Glycine-HCl (I = 0.05) pH 2.0, 55°C): 168.9 1/days
Kobs x 10^3 ([1]; 2 mg/ml in 0.9% Sodium Chloride Injection, Glycine-HCl (I = 0.05) pH 2.5, 55°C): 97.3 1/days
Kobs x 10^3 ([1]; 2 mg/ml in 0.9% Sodium Chloride Injection, Glycine-HCl (I = 0.05) pH 3.0, 55°C): 84.8 1/days
Kobs x 10^3 ([1]; 2 mg/ml in 0.9% Sodium Chloride Injection, HCl-KCl (I = 0.05) pH 1.5, 55°C): 343.2 1/days
Kobs x 10^3 ([1]; 2 mg/ml in 5% Dextrose solution, Acetate (I = 0.05) pH 4.0, 55°C): 150.6 1/days
Kobs x 10^3 ([1]; 2 mg/ml in 5% Dextrose solution, Acetate (I = 0.05) pH 5.0, 55°C): 225.7 1/days
Kobs x 10^3 ([1]; 2 mg/ml in 5% Dextrose solution, Formate (I = 0.05) pH 3.5, 55°C): 89.1 1/days
Kobs x 10^3 ([1]; 2 mg/ml in 5% Dextrose solution, Glycine-HCl (I = 0.05) pH 2.0, 55°C): 106.9 1/days
Kobs x 10^3 ([1]; 2 mg/ml in 5% Dextrose solution, Glycine-HCl (I = 0.05) pH 2.5, 55°C): 81.1 1/days
Kobs x 10^3 ([1]; 2 mg/ml in 5% Dextrose solution, Glycine-HCl (I = 0.05) pH 3.0, 55°C): 70.9 1/days
Kobs x 10^3 ([1]; 2 mg/ml in 5% Dextrose solution, HCl-KCl (I = 0.05) pH 1.5, 55°C): 288.1 1/days
Kobs x 10^3 ([1]; 2 mg/ml in Water for Injection, Acetate (I = 0.05) pH 4.0, 55°C): 376.7 1/days
Kobs x 10^3 ([1]; 2 mg/ml in Water for Injection, Acetate (I = 0.05) pH 5.0, 55°C): 430.4 1/days
Kobs x 10^3 ([1]; 2 mg/ml in Water for Injection, Fermate (I = 0.05) pH 3.5, 55°C): 125.4 1/days
Kobs x 10^3 ([1]; 2 mg/ml in Water for Injection, Glycine-HCl (I = 0.05) pH 2.0, 55°C): 79.0 1/days
Kobs x 10^3 ([1]; 2 mg/ml in Water for Injection, Glycine-HCl (I = 0.05) pH 2.5, 55°C): 55.1 1/days
Kobs x 10^3 ([1]; 2 mg/ml in Water for Injection, Glycine-HCl (I = 0.05) pH 3.0, 55°C): 66.8 1/days

COc1cccc2c1C(=O)c1c(O)c3c(c(O)c1C2=O)C[C@@](O)(C(=O)CO)C[C@@H]3O[C@H]1C[C@H](N)[C@H](O)[C@H](C)O1 [Doxorubicin·HCl, doxorubicin]
% stability ([2]; pH 3.7, 8°C, 0 months): 100.0%
Doxorubicin.HCl assay ([2]; pH 3.7, 8°C, 0 months): 2.064 mg/mL
pH ([2]; pH 3.7, 8°C, 0 months): 3.7
% stability ([2]; pH 3.7, 8°C, 1 month): 99.3%
Doxorubicin.HCl assay ([2]; pH 3.7, 8°C, 1 month): 2.054 mg/mL
pH ([2]; pH 3.7, 8°C, 1 month): 3.7
% stability ([2]; pH 3.7, 8°C, 3 months): 100.0%
Doxorubicin.HCl assay ([2]; pH 3.7, 8°C, 3 months): 2.063 mg/mL
pH ([2]; pH 3.7, 8°C, 3 months): 3.6
% stability ([2]; pH 3.7, 15°C, 0 months): 100.0%
Doxorubicin.HCl assay ([2]; pH 3.7, 15°C, 0 months): 2.064 mg/mL
pH ([2]; pH 3.7, 15°C, 0 months): 3.7
% stability ([2]; pH 3.7, 15°C, 1 month): 100.5%
Doxorubicin.HCl assay ([2]; pH 3.7, 15°C, 1 month): 2.073 mg/mL
pH ([2]; pH 3.7, 15°C, 1 month): 3.7
% stability ([2]; pH 3.7, 15°C, 3 months): 98.4%
Doxorubicin.HCl assay ([2]; pH 3.7, 15°C, 3 months): 2.029 mg/mL
pH ([2]; pH 3.7, 15°C, 3 months): 3.6
% stability ([2]; pH 3.7, 27°C, 0 months): 100.0%
Doxorubicin.HCl assay ([2]; pH 3.7, 27°C, 0 months): 2.064 mg/mL
pH ([2]; pH 3.7, 27°C, 0 months): 3.7
% stability ([2]; pH 3.7, 27°C, 1 month): 91.5%
Doxorubicin.HCl assay ([2]; pH 3.7, 27°C, 1 month): 1.888 mg/mL
pH ([2]; pH 3.7, 27°C, 1 month): 3.6
% stability ([2]; pH 3.7, 27°C, 3 months): 74.9%
pH ([2]; pH 3.7, 27°C, 3 months): 3.3
K x 10^3 ([3]; 4°C): 0.019 1/days
K x 10^3 ([3]; 8°C): 0.038 1/days
K x 10^3 ([3]; 15°C): 0.130 1/days
K x 10^3 ([3]; 27°C): 0.918 1/days
t90% ([3]; 4°C): 5,652 days
t90% ([3]; 8°C): 2,745 days
t90% ([3]; 15°C): 810 days
t90% ([3]; 27°C): 115 days
Kobs x 10^3 ([3]; 27°C): 0.850 1/days
Kobs x 10^3 ([3]; 35°C): 3.506 1/days
Kobs x 10^3 ([3]; 45°C): 12.790 1/days
Kobs x 10^3 ([3]; 55°C): 49.340 1/days
t90% ([4]; 4°C): 3,218 days
t90% ([4]; 8°C): 1,628 days
t90% ([4]; 15°C): 516 days
t90% ([4]; 27°C): 82 days
Kobs x 10^3 ([4]; 35°C): 4.190 1/days
Kobs x 10^3 ([4]; 45°C): 14.55 1/days
Kobs x 10^3 ([4]; 55°C): 58.11 1/days
Kobs x 10^3 ([4]; 60°C): 102.6 1/days
K x 10^3 ([5]; 4°C): 0.017 1/days
K x 10^3 ([5]; 8°C): 0.037 1/days
K x 10^3 ([5]; 15°C): 0.137 1/days
K x 10^3 ([5]; 27°C): 1.112 1/days
t90% ([5]; 4°C): 6,166 days
t90% ([5]; 8°C): 2,838 days
t90% ([5]; 15°C): 768 days
t90% ([5]; 27°C): 94 days
Kobs x 10^3 ([5]; 35°C): 3.89 1/days
Kobs x 10^3 ([5]; 45°C): 21.61 1/days
Kobs x 10^3 ([5]; 55°C): 75.90 1/days
Kobs x 10^3 ([5]; 60°C): 164.9 1/days
